In US9737510B2, “Indazole compounds and a process for the preparation thereof” (Council of Scientific & Industrial Research, priority 2013, dated 2017):
Converted amounts (≈) assume the structure as drawn.

Key:
MIN6 cells = experiment: Insulinotropic activity: insulin secretion from MIN6 cells (ELISA based assay); assay type: cell-based, mouse; conditions: MIN6 cells, standard error in bracket
Experimental: Insulinotropic activity of the NDS100178 and NDS100179 was measured by a well-optimized ELISA based Assay (Shantani Protocol #5205) described below.
Materials • MIN6Cell (source: National Center for Cell Sciences, Pune) • Mouse Insulin ELISA kit (Mercodia, 10-1247-01) • Plate Shaker (MixMatefromEppendorf) • HEPES Balanced Krebs-Ringer bicarbonate buffer (components as follows)
Method • i. Seed proliferating culture of MIN-6 cells into a 6 well plate with almost half the confluency two days before the experiment. • ii. One the day of Insulin induction experiment, the cells should become almost confluent and are in good condition. • iii. On the day of experiment, first prepare 1×KRB-HEPES buffer with 0.1% BSA (for rinse) and without BSA (for equilibration and insulin induction) as described in the materials. • iv. Prepare equilibration buffer: 1×KRB-HEPES buffer without BSA containing 3.3 mM glucose (to bring down the glucose level of all cells to the same level). For example, add 66 ul 1 M glucose stock solution to 20 ml KRB-HEPES buffer without BSA. • v. Prepare the stimulating buffer (insulin induction): 1×KRB-HEPES buffer without BSA containing the defined glucose level (in most cases, it will be 16.7 mM glucose) and the desired concentration of molecule. • vi. Pre warm all the buffers to 37° C. in the water bath (at 15 minutes). • vii. Remove media from all wells, rinse each well twice with 2 ml KRB-HEPES buffer containing 0.1% BSA. • viii. Add 2 ml of equilibration buffer in each well and incubate at 37° C. for half an hour. • ix. After the incubation add 2 ml of stimulating buffer in respective wells (properly labelled) and incubate 37° C. for 1 hour. • x. In the meanwhile, turn on the refrigerated centrifuge and set the temperature to 4° C. Take out enzyme conjugate, diluent buffer, Calibrator 0 and stripes needed (for example, two stripes for 8 samples to be run in duplicate) from Mercodia ELISA kit box (store at 4° C.) and warm up them to RT. • xi. […] Centrifuge the tubes at 600 g for 5 min. • xiii. Take out 500 ul in fresh properly labelled precooled tubes. • xiv. Now dilute the samples 1:30 in calibrator 0 i.e. add 3 ul of each sample to 87 ul of Calibrator 0 in 8 different properly labelled 0.5 ml tubes. Mix them well. • xv. Prepare 1× enzyme conjugate buffer, i.e. mix 180 ul enzyme (11×) with 1800 ul diluent buffer for ELISA of two stripes. • xvi. Add 10 ul of each sample (diluted, in duplicate) in the two adjacent wells. Be careful not to touch the bottom. • xvii. Carefully add 100 ul of Enzyme Conjugate buffer (1×) to each well and incubate on a plate shaker (eppendorf MixMate) at 800 rpm for 2 hours at 25° C. • xviii. 45 min before the incubation is over take out wash buffer, substrate TMB and Stop solution. Keep them at RT. • xix. 5 min before the incubation is over prepare 1× wash buffer (21×), i.e. 40 ml distilled water+2 ml (21×) wash buffer in a reservoir. • xx. After the incubation is over, wash each well 7 times with 350 ul wash buffer. Use a multichannel (175 ul). • xxi. After the washing add 200 uL substrate TMB solution in each well. Maintain a proper pace. • xxii. Allow to incubate for 15 min. Set the program on the plate reader, to take absorbance read at 450 nm. Add a 5 sec shake step to allow proper mixing. • xxiii. After incubation immediately add 50 ul Stop solution in each well at same pace and take absorbance read at 450 nm.
Assay conditions were kept same in all the assays. The difference in absorption-value for control experiment (no treatment with molecule) over different days is attributed to cell culture conditions. Other varying conditions are specified in the respective graphs.
[Note: If not mentioned specifically, HG=High Glucose (16.7 mM), LG=Low Glucose (3.3 mM)]

[1] = Metabolic study and intrinsic clearance in MLM; assay type: in vitro ADME
Metabolic study in HLM = assay type: in vitro ADME
Kinetic solubility = assay type: physicochemical; conditions: kinetic from dmso stock
CYP3A4 = CYP3A4 (Homo sapiens, UniProt P08684); experiment: CYP3A4 inhibition; assay type: in vitro ADME
Sequence of CYP3A4 (P08684 whole entry): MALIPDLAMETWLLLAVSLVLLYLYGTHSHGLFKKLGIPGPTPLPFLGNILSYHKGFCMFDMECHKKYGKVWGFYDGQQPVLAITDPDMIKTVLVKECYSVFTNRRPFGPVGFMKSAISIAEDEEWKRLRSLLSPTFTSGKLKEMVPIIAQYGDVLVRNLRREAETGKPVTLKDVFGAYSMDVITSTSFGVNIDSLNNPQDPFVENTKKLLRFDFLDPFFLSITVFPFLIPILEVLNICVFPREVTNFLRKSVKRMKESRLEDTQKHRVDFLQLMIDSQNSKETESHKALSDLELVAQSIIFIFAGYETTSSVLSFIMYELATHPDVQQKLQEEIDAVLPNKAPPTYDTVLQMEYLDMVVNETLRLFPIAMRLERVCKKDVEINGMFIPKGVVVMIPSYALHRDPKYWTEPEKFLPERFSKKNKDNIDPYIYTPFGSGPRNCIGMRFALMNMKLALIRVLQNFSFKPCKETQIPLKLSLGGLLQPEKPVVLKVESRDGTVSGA

| Compound | Insulin Secretion (MIN6 cells; compound 0.1 μM) | Insulin Secretion (MIN6 cells; compound 1.0 μM) | Insulin Secretion (MIN6 cells; compound 10.0 μM) | Intrinsic Clearnace MLM [1] | Metabolic Study MLM Mean % PCR* [1] | Metabolic Study HLM Mean % PCR* (Metabolic study in HLM) | solubility kinetic (Kinetic solubility) | IC50 (CYP3A4) | CYP3A4 Inhibition (CYP3A4) |
| --- | --- | --- | --- | --- | --- | --- | --- | --- | --- |
| c1ccc2c(C3=NCCN3)n[nH]c2c1 [NDS100277, 3-(4,5-dihydro-1H-imidazol-2-yl)-1H-indazole] | 11.87 (0.8) ng/ml | 14.66 (0.4) ng/ml | 20.96 (1.7) ng/ml |  |  |  |  |  |  |
| Cn1nc(C2=NCCN2)c2ccccc21 [NDS100278, 3-(4,5-dihydro-1H-imidazol-2-yl)-1-methyl-1H-indazole] | 12.43 (1.1) ng/ml | 10.80 (0.2) ng/ml | 13.16 (1.6) ng/ml |  |  |  |  |  |  |
| c1ccc2c(C3=NC4CCCCC4N3)n[nH]c2c1 (stereo not shown) [NDS100279, 3-(3a,4,5,6,7,7a-hexahydro-1H-benzo[d]imidazol-2-yl)-1H-indazole] | 10.45 (1.6) ng/ml | 14.57 (3.0) ng/ml | 21.45 (0.9) ng/ml |  |  |  |  |  |  |
| Clc1ccc2[nH]nc(C3=NC4CCCCC4N3)c2c1 (stereo not shown) [NDS100281, 5-chloro-3-(3a,4,5,6,7,7a-hexahydro-1H-benzo[d]imidazol-2-yl)-1H-indazole] | 14.73 (0.5) ng/ml | 16.91 (0.1) ng/ml | 20.85 (0.8) ng/ml |  |  |  |  |  |  |
| CCn1nc(C2=NCCN2)c2cc(Cl)ccc21 [NDS100282, 5-Chloro-3-(4,5-dihydro-1H-imidazol-2-yl)-1-ethyl-1H-indazole] | 13.02 (0.3) ng/ml | 18.73 (1.0) ng/ml | 33.15 (0.7) ng/ml | 56.4 μl/min/mg of protein | 33.27% | 71.71% | 202 µM (≈ 50.1 µg/mL) | > 10 µM |  |
| Clc1ccc2c(c1)c(C1=NCCN1)nn2Cc1ccccc1 [NDS100283, 1-Benzyl-5-chloro-3-(4,5-dihydro-1H-imidazol-2-yl)-1H-indazole] | 11.35 (1.0) ng/ml | 20.08 (0.8) ng/ml | 50.45 (3.8) ng/ml | 145.5 μl/min/mg of protein | 19.09% | 86.02% | 113 µM (≈ 35.2 µg/mL) |  | No inhibition |
